Data set [1] in a line: Distribution of ^238 Pu-citrate in Mouse Tissues (actinide-ion sequestering activity, animal studies). In kind it is in vivo. Details: Liver, distribution of ^238 Pu-citrate (mean) / Skel, distribution of ^238 Pu-citrate (mean) / G.I., distribution of ^238 Pu-citrate (mean) / Kidney, distribution of ^238 Pu-citrate (mean) / Total, distribution of ^238 Pu-citrate: unit not given here. Here is the method:
Specifically, animal studies were carried out with compounds 2, 3, 4, and 10.
Distribution of ^238 Pu-Citrate in Mouse Tissues
Age of animals 74 weeks 74 weeks
^(b) Animals injected I.P. (Intraperitoneum)
(§1) Distribution of ^238 Pu-citrate in Mouse Tissues
Age of Animals 68 weeks 68 weeks
^(a) Animals injected I.M. (Intramuscular)
as §1
^(b) Animals injected I.P.
Age of animals 18 weeks 18 weeks
^(a) Animals injected I.M.

The nature of data set [2]: pH-titration of the constituent catechol groups. In kind it is physicochemical. The note with it: 4 protons, 4 constituent catechol groups. As to the method: Compound 2. Using method B, precusor 3 (1.0 g, 1.0 mmol) dissolved in CH2 Cl2 (25 ml) was added dropwise (15 min) via an addition funnel to an ice bath cooled, vigorously stirred solution of BBR3 (2 ml, 21 mmol) in CH2 Cl2 solution (25 ml). The ice bath was allowed to warm up to room temperature as the reaction slurry was stirred overnight. Cautious addition of H2 O (20 ml) was followed by an additional 2 hrs stirring to hydrolyze all boron compounds. Crude product was collected by filtration and washed well with H2 O. The pink-tan solid was dissolved in MeOH and precipitated by the addition of Et2 O. Drying at 115° (5-10 microns) overnight gave the demethylated product, compound 2 (0.88 mmol, 88%) as hygroscopic powder which analyzed with two waters of crystallization: m.p.
Compound 3 (1.0 g, 1.2 mmol) was dissolved in 98% H2 SO4 (5 ml), then SOCl2 (5 ml, 55 mmol) was added dropwise over a period of 1 hr with vigorous stirring. The reactants were protected from the atmosphere with a Drierite tube. After stirring overnight, the reaction mixture was poured onto ice. Workup as in method C gave white solid, 1.49 g (1.0 mmol, 85%) which analyzed as compound 4.3 NaCl.H2 O: IR (KBr) identical to that recorded in method A; purity also established by pH-titration giving pKa1 8.12 (4 protons) and pKa2 12.0 (4 protons) for the four constituent catechol groups.
Using precisely the same Method D, compound 7 was converted to compound 8. Thus was obtained hygroscopic white solid, 1.4 g (90%); IR (KBr) 2800-3700 s, 1600 s (>N--CO--), 1475, 1425 m, 1150-1300 s (--SO3 ^-1), 1100, 1045 s (--SO3^-), 620 (--SO3^-); purity also established by pH-titration giving pKa1 7.49 (4 protons) and pKa2 12.1 (4 protons) for the four constituent catechol groups.

The test system of the next data set is animals. Briefly: Toxicity studies / toxicity to animals. Conditions: in vivo.
Data set [3] can be described thus: qualitative observation of dissolution of Pu(IV) in the presence of the compound.
The mark [4] stands for this setting: I.P., killed 2 days after Pu injection, 74 weeks old.
The mark [5] stands for this setting: I.M., killed 2 days after Pu injection, 68 weeks old.
Setting [6] is: I.M., killed 1 day after Pu injection, 18 weeks old.
Setting [7] is: I.P., killed 1 day after Pu injection, 13.5 weeks old.

For the compound `O=C(c1ccc([N+](=O)[O-])c(O)c1O)N1CCCN(C(=O)c2ccc([N+](=O)[O-])c(O)c2O)CCN(C(=O)c2ccc([N+](=O)[O-])c(O)c2O)CCCN(C(=O)c2ccc([N+](=O)[O-])c(O)c2O)CC1` [Compound 2, 1,4,8,11-N,N',N'',N'''-Tetra(2,3-dihydroxy-4-nitrobenzoyl)tetraazacyclotetradecane], in data set [1] (setting [4]), the “Feces, distribution of ^238 Pu-citrate (mean)” value (shortened to “Feces, distribution”) came to 5.4; the “G.I., distribution of ^238 Pu-citrate (mean)” value (“G.I., distribution” for short) was 16.3; the “Kidney, distribution of ^238 Pu-citrate (mean)” value (“Kidney, distribution” below) is reported as 6.0; the “Liver, distribution of ^238 Pu-citrate (mean)” value (“Liver, distribution” for short) was determined as 36.6. In data set [1] (setting [4]), the “Skel, distribution of ^238 Pu-citrate (mean)” value (“Skel, distribution” for short) was determined as 7.9; the “Skin, distribution of ^238 Pu-citrate (mean)” value (“Skin, distribution” below) is 11.2; the “Soft Tis, distribution of ^238 Pu-citrate (mean)” value (from here on “Soft Tis, distribution”) came to 14.8; the “Total, distribution of ^238 Pu-citrate” value stood at 100. In addition, the “Urine, distribution of ^238 Pu-citrate (mean)” value (shortened to “Urine, distribution”) in data set [1] (setting [4]) was 1.8. Besides, in data set [2], the pKa1 stood at 5.59 and the pKa2 is listed as 11.8. The toxicity to animals entry in the data set on animals is “toxic to animals”.
`O=C(c1cccc(O)c1O)N1CCCN(C(=O)c2cccc(O)c2O)CCN(C(=O)c2cccc(O)c2O)CCCN(C(=O)c2cccc(O)c2O)CC1` [Compound 1, 1,4,8,11-N,N',N'',N'''-Tetra(2,3-dihydroxybenzoyl)tetraazacyclotetradecane]: in data set [3] (even at high pH, qualitative), the “dissolution of Pu(IV) in presence of compound” value is “Pu(IV) dissolved in the presence of compound 1 even at high pH”. In addition, in data set [3] (inferred from dissolution of Pu(IV) and Ksp for Pu(OH)4), the “formation constant for the Pu(IV) complex” value is “very high formation constant”.
As for `O=C(c1cccc(O)c1O)N1CCCN(C(=O)c2cccc(O)c2O)CCCN(C(=O)c2cccc(O)c2O)CCCN(C(=O)c2cccc(O)c2O)CCC1` [Compound 3, 1,5,9,13-N,N',N'',N'''-Tetra(2,3-dihydroxybenzoyl)tetraazacyclohexadecane], in data set [1] (setting [5]), the “G.I., distribution” value turned out to be 4.4; the “Kidney, distribution” value came out at 42.1; the “Liver, distribution” value is given as 23.3; the “Skel, distribution” value is 20.3. In addition, in data set [1] (setting [5]), the “Total, distribution of ^238 Pu-citrate” value is 101.6 and the “Urine, Feces (one value printed between both lines), distribution of ^238 Pu-citrate (mean)” value is listed as 11.5. Moreover, the acute toxicity result with animals is given as “substantially acutely non-toxic”.
Turning to “1,6,11,16-N,N',N'',N'''-Tetra(2,3-dihydroxybenzoyl)tetraazahexadecane potassium sulfonate [Compound 8]”, in data set [2], the pKa1 worked out at 7.49 and the pKa2 came out at 12.1.
Regarding “1,4,8,11-N,N',N'',N'''-Tetra(2,3-dihydroxybenzoyl)tetraazaundecane potassium sulfonate [Compound 10]”, in data set [1] (setting [6]), the “Feces, distribution” value worked out at 2.2; the “G.I., distribution” value is reported as 10.2; the “Kidney, distribution” value was found to be 4.8; the “Liver, distribution” value came out at 28.8. In addition, in data set [1] (setting [6]), the “Skel, distribution” value stood at 12.1; the “Skin, distribution” value is 5.7; the “Soft Tis, distribution” value is given as 7.1; the “Total, distribution of ^238 Pu-citrate” value is listed as 101.1. The “Urine, distribution” value in data set [1] (setting [6]) turned out to be 29.2.
In the case of “1,5,9,13-N,N',N'',N'''-Tetra(2,3-dihydroxybenzoyl)tetraazacyclohexadecane sodium sulfonate [Compound 4]”, in data set [1] (setting [7]), the “Feces, distribution” value is 3.1; the “G.I., distribution” value was 8.2; the “Kidney, distribution” value was 3.9; the “Liver, distribution” value stood at 24.8. In addition, in data set [1] (setting [7]), the “Skel, distribution” value amounted to 15.7; the “Skin, distribution” value came to 4.1; the “Soft Tis, distribution” value was determined as 6.4; the “Total, distribution of ^238 Pu-citrate” value worked out at 100. The “Urine, distribution” value in data set [1] (setting [7]) is 33.8. In data set [2], this compound showed a pKa1 of 8.12 and a pKa2 of 12.0.

Values taken from patent publication US4309305A, “In vitro removal of actinide (IV) ions” (priority 1979, dated 1982).
